Source: PMC2931804 (Clinical cancer research : an official journal of the …, 2010)
Read-outs that look alike come from different tables or passages of the source.

[1] = DL1 500 mg twice daily × 3 + sLV5FU2, 1st cycle, n = 3
[2] = DL1 500 mg twice daily × 3 + sLV5FU2, Any cycle, n = 3
[3] = DL1 600 mg once daily × 3 + sLV5FU2, 1st cycle, n = 3
[4] = DL1 600 mg once daily × 3 + sLV5FU2, Any cycle, n = 3
[5] = DL2 600 mg twice daily × 3 + sLV5FU2, 1st cycle, n = 6
[6] = DL2 600 mg twice daily × 3 + sLV5FU2, Any cycle, n = 6
[7] = DL2 800 mg once daily × 3 + sLV5FU2, 1st cycle, n = 3
[8] = DL2 800 mg once daily × 3 + sLV5FU2, Any cycle, n = 3
[9] = DL3 800 mg twice daily × 3 + sLV5FU2, 1st cycle, n = 3
[10] = DL3 800 mg twice daily × 3 + sLV5FU2, Any cycle, n = 3

In the case of `O=C(CCCCCCC(=O)Nc1ccccc1)NO` [vorinostat, suberoylanilide hydroxamic acid], the Dose-limiting toxicities (800 mg vorinostat twice-daily dose level + sLV5FU2) is reported as “Grade 3 fatigue and mucositis”, the Dose-limiting toxicities (2,000 mg vorinostat once-daily dose level + sLV5FU2) is reported as “Grade 3 fatigue, and hand and foot syndrome” and the “ATE, treatment-related, patients (G2/G3/G4)” value (“ATE, treatment-related” for short) [1] is reported as 0/0/0. The “Anemia, treatment-related, patients (G2/G3/G4)” value (shortened to “Anemia, treatment-related”) [1] was 0/0/0, the “Anorexia, treatment-related, patients (G2/G3/G4)” value (shortened to “Anorexia, treatment-related”) [1] was 0/0/0 and the “Chelitis, treatment-related, patients (G2/G3/G4)” value (“Chelitis, treatment-related” for short) [1] was 0/0/0. For the same compound, the “Dehydration, treatment-related, patients (G2/G3/G4)” value (“Dehydration, treatment-related” below) [1] was 0/0/0, the “Diarrhea, treatment-related, patients (G2/G3/G4)” value (from here on “Diarrhea, treatment-related”) [1] was 1/0/0 and the “Esophagitis, treatment-related, patients (G2/G3/G4)” value (“Esophagitis, treatment-related” below) [1] was 0/0/0. The “Fatigue, treatment-related, patients (G2/G3/G4)” value (from here on “Fatigue, treatment-related”) [1] was 2/0/0, the “Fever, treatment-related, patients (G2/G3/G4)” value (“Fever, treatment-related” for short) [1] was 0/0/0 and the “Headache, treatment-related, patients (G2/G3/G4)” value (“Headache, treatment-related” for short) [1] was 0/0/0. For the same compound, the “Mucositis, treatment-related, patients (G2/G3/G4)” value (“Mucositis, treatment-related” below) [1] was 0/0/0, the “Nausea, treatment-related, patients (G2/G3/G4)” value (from here on “Nausea, treatment-related”) [1] was 1/0/0 and the “Neutropenia, treatment-related, patients (G2/G3/G4)” value (“Neutropenia, treatment-related” below) [1] was 0/0/0. The “Thrombocytopenia, treatment-related, patients (G2/G3/G4)” value (“Thrombocytopenia, treatment-related” below) [1] was 0/0/0, the “VTE, treatment-related, patients (G2/G3/G4)” value (“VTE, treatment-related” for short) [1] was 0/0/0 and the “Vomiting, treatment-related, patients (G2/G3/G4)” value (“Vomiting, treatment-related” for short) [1] was 1/0/0. For the same compound, the “ATE, treatment-related” value [2] was 0/0/0, the “Anemia, treatment-related” value [2] was 0/0/0 and the “Anorexia, treatment-related” value [2] was 2/0/0. For the same compound, the “Chelitis, treatment-related” value [2] was 0/0/0, the “Dehydration, treatment-related” value [2] was 0/0/0 and the “Diarrhea, treatment-related” value [2] was 1/0/0. The “Esophagitis, treatment-related” value [2] was 1/0/0, the “Fatigue, treatment-related” value [2] was 3/0/0 and the “Fever, treatment-related” value [2] was 1/0/0. The “Headache, treatment-related” value [2] was 0/0/0, the “Mucositis, treatment-related” value [2] was 1/0/0 and the “Nausea, treatment-related” value [2] was 2/0/0. The “Neutropenia, treatment-related” value [2] was 0/0/0, the “Thrombocytopenia, treatment-related” value [2] was 0/0/0 and the “VTE, treatment-related” value [2] was 0/0/0. The “Vomiting, treatment-related” value [2] was 1/0/0, the “Anemia, treatment-related” value [3] was 1/0/0 and the “Anorexia, treatment-related” value [3] was 1/0/0. For the same compound, the “DVT/PE, treatment-related, patients (G2/G3/G4)” value (from here on “DVT/PE, treatment-related”) [3] was 0/0/0, the “Dehydration, treatment-related” value [3] was 0/0/0 and the “Diarrhea, treatment-related” value [3] was 0/0/0. The “Fatigue, treatment-related” value [3] was 1/0/0, the “GI bleed, treatment-related, patients (G2/G3/G4)” value (from here on “GI bleed, treatment-related”) [3] was 0/0/0 and the “Hand and Foot, treatment-related, patients (G2/G3/G4)” value (“Hand and Foot, treatment-related” below) [3] was 0/0/0. The “Infection, treatment-related, patients (G2/G3/G4)” value (“Infection, treatment-related” below) [3] was 0/0/0, the “Mucositis, treatment-related” value [3] was 0/0/0 and the “Nausea, treatment-related” value [3] was 1/0/0. The “Neutropenia, treatment-related” value [3] was 0/0/0, the “Thrombocytopenia, treatment-related” value [3] was 1/0/0 and the “Vomiting, treatment-related” value [3] was 0/0/0. For the same compound, the “Weight Loss, treatment-related, patients (G2/G3/G4)” value (“Weight Loss, treatment-related” below) [3] was 0/0/0, the “Anemia, treatment-related” value [4] was 1/0/0 and the “Anorexia, treatment-related” value [4] was 1/0/0. For the same compound, the “Creatinine, treatment-related, patients (G2/G3/G4)” value [4] was 1/0/0, the “DVT/PE, treatment-related” value [4] was 0/0/0 and the “Dehydration, treatment-related” value [4] was 1/0/0. The “Diarrhea, treatment-related” value [4] was 0/1/0, the “Fatigue, treatment-related” value [4] was 2/0/0 and the “GI bleed, treatment-related” value [4] was 0/0/0. The “Hand and Foot, treatment-related” value [4] was 0/0/0, the “Infection, treatment-related” value [4] was 0/0/0 and the “Mucositis, treatment-related” value [4] was 2/0/0. The “Nausea, treatment-related” value [4] was 1/0/0, the “Neutropenia, treatment-related” value [4] was 0/0/0 and the “Thrombocytopenia, treatment-related” value [4] was 1/0/0. The “Vomiting, treatment-related” value [4] was 1/0/0, the “Weight Loss, treatment-related” value [4] was 0/0/0 and the DLT (DL1 (500 mg twice daily × 3) and DL2 (600 mg twice daily), three patients each) was “without any DLT”. The “ATE, treatment-related” value [5] was 0/0/0, the “Anemia, treatment-related” value [5] was 1/0/0 and the “Anorexia, treatment-related” value [5] was 2/0/0. The “Chelitis, treatment-related” value [5] was 0/0/0, the “Dehydration, treatment-related” value [5] was 0/0/0 and the “Diarrhea, treatment-related” value [5] was 1/0/0. The “Esophagitis, treatment-related” value [5] was 0/0/0, the “Fatigue, treatment-related” value [5] was 3/0/0 and the “Fever, treatment-related” value [5] was 0/0/0. For the same compound, the “Headache, treatment-related” value [5] was 0/0/0, the “Mucositis, treatment-related” value [5] was 0/0/0 and the “Nausea, treatment-related” value [5] was 3/0/0. For the same compound, the “Neutropenia, treatment-related” value [5] was 0/0/0, the “Thrombocytopenia, treatment-related” value [5] was 0/1/0 and the “VTE, treatment-related” value [5] was 0/0/0. For the same compound, the “Vomiting, treatment-related” value [5] was 1/0/0, the “ATE, treatment-related” value [6] was 0/0/0 and the “Anemia, treatment-related” value [6] was 1/1/0. For the same compound, the “Anorexia, treatment-related” value [6] was 2/0/0, the “Chelitis, treatment-related” value [6] was 0/0/0 and the “Dehydration, treatment-related” value [6] was 2/0/0. For the same compound, the “Diarrhea, treatment-related” value [6] was 1/0/0, the “Esophagitis, treatment-related” value [6] was 0/0/0 and the “Fatigue, treatment-related” value [6] was 3/1/0. The “Fever, treatment-related” value [6] was 0/0/1, the “Headache, treatment-related” value [6] was 0/1/0 and the “Mucositis, treatment-related” value [6] was 0/0/0. For the same compound, the “Nausea, treatment-related” value [6] was 3/0/0, the “Neutropenia, treatment-related” value [6] was 0/0/0 and the “Thrombocytopenia, treatment-related” value [6] was 0/0/1. For the same compound, the “VTE, treatment-related” value [6] was 0/0/0, the “Vomiting, treatment-related” value [6] was 1/0/0 and the “Patients with DLT” value (DL2 600 mg twice daily × 3 + sLV5FU2, six patients) was “None and without any DLT”. For the same compound, the “Anemia, treatment-related” value [7] was 1/0/0, the “Anorexia, treatment-related” value [7] was 1/0/0 and the “Creatinine, treatment-related, patients (G2/G3/G4)” value [7] was 1/0/0. The “DVT/PE, treatment-related” value [7] was 0/0/0, the “Dehydration, treatment-related” value [7] was 0/0/0 and the “Diarrhea, treatment-related” value [7] was 0/0/0. For the same compound, the “Fatigue, treatment-related” value [7] was 1/0/0, the “GI bleed, treatment-related” value [7] was 0/0/0 and the “Hand and Foot, treatment-related” value [7] was 0/0/0. The “Infection, treatment-related” value [7] was 0/0/0, the “Mucositis, treatment-related” value [7] was 0/0/0 and the “Nausea, treatment-related” value [7] was 1/0/0. For the same compound, the “Neutropenia, treatment-related” value [7] was 0/0/0, the “Thrombocytopenia, treatment-related” value [7] was 1/0/0 and the “Vomiting, treatment-related” value [7] was 0/0/0. For the same compound, the “Weight Loss, treatment-related” value [7] was 0/0/0, the “Anemia, treatment-related” value [8] was 1/0/0 and the “Anorexia, treatment-related” value [8] was 2/0/0. For the same compound, the “DVT/PE, treatment-related” value [8] was 0/0/0, the “Dehydration, treatment-related” value [8] was 0/0/0 and the “Diarrhea, treatment-related” value [8] was 1/0/0. The “Fatigue, treatment-related” value [8] was 2/0/0, the “GI bleed, treatment-related” value [8] was 0/0/0 and the “Hand and Foot, treatment-related” value [8] was 0/0/0. The “Infection, treatment-related” value [8] was 0/0/0, the “Mucositis, treatment-related” value [8] was 0/0/0 and the “Nausea, treatment-related” value [8] was 2/0/0. For the same compound, the “Neutropenia, treatment-related” value [8] was 0/0/0, the “Thrombocytopenia, treatment-related” value [8] was 1/0/0 and the “Vomiting, treatment-related” value [8] was 0/0/0. The “Weight Loss, treatment-related” value [8] was 0/0/0, the “ATE, treatment-related” value [9] was 0/0/0 and the “Anemia, treatment-related” value [9] was 0/0/0. For the same compound, the “Anorexia, treatment-related” value [9] was 1/0/0, the “Chelitis, treatment-related” value [9] was 1/0/0 and the “Dehydration, treatment-related” value [9] was 2/0/0. The “Diarrhea, treatment-related” value [9] was 1/0/0, the “Esophagitis, treatment-related” value [9] was 1/0/0 and the “Fever, treatment-related” value [9] was 0/0/0. For the same compound, the “Headache, treatment-related” value [9] was 0/0/0, the “Nausea, treatment-related” value [9] was 0/0/0 and the “Neutropenia, treatment-related” value [9] was 0/0/0. The “Thrombocytopenia, treatment-related” value [9] was 3/0/0, the “VTE, treatment-related” value [9] was 0/0/0 and the “Vomiting, treatment-related” value [9] was 0/0/0. The “ATE, treatment-related” value [10] was 0/0/1, the “Anemia, treatment-related” value [10] was 0/2/0 and the “Anorexia, treatment-related” value [10] was 2/0/0. For the same compound, the “Chelitis, treatment-related” value [10] was 2/0/0, the “Dehydration, treatment-related” value [10] was 2/0/0 and the “Diarrhea, treatment-related” value [10] was 0/1/0. The “Esophagitis, treatment-related” value [10] was 1/0/0, the “Fatigue, treatment-related” value [10] was 1/2/0 and the “Fever, treatment-related” value [10] was 0/0/0. For the same compound, the “Headache, treatment-related” value [10] was 0/0/0 and the “Mucositis, treatment-related” value [10] was 2/1/1.
